In brackets after ≈: the same amount, converted by molar mass.
Tests used:
[1] = in vitro; conditions: human, plasma, PPB
[2] = in vitro; conditions: hepatocytes
[3] = in vitro; conditions: human
[4] = in vitro; conditions: SD, HW or BN, rat, plasma
[5] = physchem; conditions: octan-1-ol/water
[6] = physchem; conditions: pH 7.4 buffer

SMILES | fraction unbound at 5 h [1] | hepatocyte CLint [2] | microsomal CLint ([3]; microsomes) | fraction unbound at 5 h [4] | logD ([5]; pH 7.4, LogD7.4) | microsomal CLint ([3]; liver microsomes) | solubility thermodynamic [6] | logD ([5]; pH 7.4)
O=c1[nH]c2c(O)ccc([C@@H](O)CN[C@H]3CCC[C@@H]3OCc3ccccc3)c2s1 | 0.069 | 108 µL/min/1e6 cells | 26 µL/min/mg | 0.179 |  |  |  | 
Cc1ccc(S(=O)(=O)Nc2c(C(=O)NC(C)C(C)(C)C)c(C)nn2-c2ccccc2)cc1 (stereo not given) | 0.0127 | 7 µL/min/1e6 cells |  | 0.0457 | 1.21 | 31 µL/min/mg |  | 
CCC(C)NC(=O)c1c(C)nn(-c2ccccc2)c1NS(=O)(=O)c1ccc(C)cc1 (stereo not given) | 0.0059 | 17.3 µL/min/1e6 cells | 15.7 µL/min/mg | 0.0335 | 0.66 |  |  | 
CCC(CC)NC(=O)c1cnn(-c2ccccn2)c1NS(=O)(=O)c1ccc(C)cc1 |  | 9.95 µL/min/1e6 cells |  | 0.0499 | 0.27 | < 3 µL/min/mg |  | 
COc1ccnc(CCc2nc3ncccc3[nH]2)c1 |  | 18.9 µL/min/1e6 cells |  | 0.309 | 1.69 | < 3 µL/min/mg |  | 
CN(CCCOCCOCCc1ccccc1)CCc1ccc(O)c2nc(O)sc12 | 0.0988 | > 150 µL/min/1e6 cells |  | 0.24 |  | 35 µL/min/mg |  | 
CNCCC=C1c2ccccc2CCc2ccccc21 [NORTRIPTYLINE] | 0.132 | 144 µL/min/1e6 cells | < 3 µL/min/mg | 0.132 | 1.58 |  |  | 
Cc1ccc(S(=O)(=O)Nc2c(C(=O)N[C@@H](C)C(C)(C)C)c(C)nn2C2CCS(=O)(=O)CC2)cc1 |  | 4 µL/min/1e6 cells | < 3 µL/min/mg | 0.258 | 0.25 |  |  | 
Cc1ccc(S(=O)(=O)Nc2c(C(=O)N[C@@H](C)C(C)(C)C)c(C)nn2CC(F)(F)F)cc1 | 0.0142 | 18 µL/min/1e6 cells |  | 0.0274 | 0.93 | 17 µL/min/mg |  | 
COc1cccc2sc(NC(=O)c3ccccc3)nc12 |  | 16 µL/min/1e6 cells |  | 0.0101 |  | 74 µL/min/mg |  | 3.96
CC1(C)[C@@H]2CC[C@@]1(CS(=O)(=O)N1CCN(c3ccc(C(F)(F)F)cn3)CC1)C(=O)C2 | 0.0092 | 141 µL/min/1e6 cells |  | 0.0191 |  | 51 µL/min/mg |  | 
O=C(CC12CC3CC(CC(C3)C1)C2)Nc1cccc2c(=O)n(C(CO)CO)ccc12 |  | 19 µL/min/1e6 cells |  | 0.117 | 2.62 | 42 µL/min/mg |  | 
COc1ccccc1CN1C(=O)c2ccccc2C1C(=O)NC1CCC(C)CC1 (stereo not given) |  | > 150 µL/min/1e6 cells |  | 0.0968 |  | > 150 µL/min/mg |  | 3.74
CC(C)(CCCCCOCCc1ccccc1)NCCc1ccc(O)c2nc(O)sc12 |  | 93 µL/min/1e6 cells | 48.7 µL/min/mg | 0.0229 | 2.92 |  |  | 
CCc1c2c(nc3ccc(O)cc13)-c1cc3c(c(=O)n1C2)COC(=O)[C@]3(O)CC [7-ETHYL-10-HYDROXYCAMPTOTHECIN] |  | 24 µL/min/1e6 cells | 25.1 µL/min/mg | 0.0948 | 1.6 |  |  | 
O=C(NC1CC1)c1cn(-c2cccc(C#Cc3cccnc3)c2)c2ncccc2c1=O |  | 29 µL/min/1e6 cells | 7 µL/min/mg | 0.0082 |  |  |  | 
Cc1cccc(CN2CCC3(CC2)CCN(C(=O)c2ccccc2)CC3)c1 |  | 10.2 µL/min/1e6 cells |  | 0.46 |  | 13.5 µL/min/mg |  | 
Cc1c(Cl)ccc(OC2CCN(CC3CCN([C@@H](Cc4ccc(F)cc4)C(=O)O)CC3)CC2)c1Cl | 0.0374 | 13.8 µL/min/1e6 cells |  | 0.232 |  | < 3 µL/min/mg |  | 
Cc1nocc1C(=O)Nc1ccc(-c2ccccc2OC(F)(F)F)c(N)n1 |  | 74.1 µL/min/1e6 cells |  | 0.0366 | 3.7 | < 3 µL/min/mg |  | 

The remaining lines, values ahead:

fraction unbound at 5 h [1] | hepatocyte CLint [2] | microsomal CLint ([3]; microsomes) | fraction unbound at 5 h [4] | logD ([5]; pH 7.4, LogD7.4) | microsomal CLint ([3]; liver microsomes) | solubility thermodynamic [6] | logD ([5]; pH 7.4) | SMILES
0.089 | 12.5 µL/min/1e6 cells |  | 0.0909 | -0.34 | < 3 µL/min/mg |  |  | O=C(NCC1(O)CCCCCC1)c1cc(-c2ccccc2C(=O)O)ccc1Cl
0.0032 | 91 µL/min/1e6 cells |  | 0.0108 | 2.9 | 56 µL/min/mg |  |  | COc1ccc(CNC(=O)Nc2ncc([N+](=O)[O-])s2)cc1
0.0948 | 16 µL/min/1e6 cells | 33 µL/min/mg | 0.157 | 2.36 |  |  |  | COc1cc2nnc(C(N)=O)c(Nc3ccc(F)cc3F)c2cc1N1CCN(C)CC1
 | 136 µL/min/1e6 cells |  | 0.294 | 1.5 | 41 µL/min/mg |  |  | N#C[C@]1(NC(=O)[C@@H](N)Cc2cccs2)C[C@H]1c1ccccc1
0.0082 | 18 µL/min/1e6 cells | 27 µL/min/mg | 0.0335 | 1.46 |  |  |  | Cc1ccc(S(=O)(=O)Nc2c(C(=O)NCC(C)(C)C)c(C)nn2-c2ccccc2)cc1
 | 21 µL/min/1e6 cells | < 3 µL/min/mg | 0.089 | 3.36 |  |  |  | Cc1ccc(C(=O)NC2CC2)cc1-c1ccc(C(=O)NCC2CC2)nc1
0.0191 | 55 µL/min/1e6 cells |  | 0.0313 | 4.01 | 107 µL/min/mg |  |  | C[C@@H]1CN(Cc2nnc(-c3cc(-c4cccc5[nH]ccc45)cc4[nH]ncc34)o2)C[C@H](C)O1
0.0988 | > 150 µL/min/1e6 cells | > 150 µL/min/mg | 0.176 |  |  |  |  | CCc1cnn2c(NCc3ccc[n+]([O-])c3)cc(N3CCCC[C@H]3CCO)nc12 [DINACICLIB]
 | 51 µL/min/1e6 cells | 4 µL/min/mg | 0.0017 |  |  | 3.2 µM (≈ 1.07 µg/mL) |  | Cc1ccccc1/N=N/c1ccc(NC(=O)c2ccnn2C)c(C)c1
 | 38 µL/min/1e6 cells | 41 µL/min/mg | 0.624 |  |  |  |  | CC(C(=O)OC1CC[N+](C)(C)CC1)(c1ccccc1)N1CCC(F)(F)CC1 (stereo not given)
 | 29 µL/min/1e6 cells |  | 0.0391 | 3.49 | < 3 µL/min/mg |  |  | C[C@H](CO)n1ccc2c(NC(=O)Cc3ccc(Cl)c(C(F)(F)F)c3)cccc2c1=O
 | 12.7 µL/min/1e6 cells | < 3 µL/min/mg | 0.0052 | 0.94 |  |  |  | Cc1nc(-c2ccc(OCC(C)C)c(C#N)c2)sc1C(=O)O [FEBUXOSTAT]
0.409 | 14 µL/min/1e6 cells |  | 0.443 | 0.79 | 14 µL/min/mg |  |  | COc1ccc(CC(C)(C)NC[C@H](O)c2cc(O)cc3c2OCC(=O)N3)cc1 [OLODATEROL]
 | 40 µL/min/1e6 cells |  | 0.0066 | 1.9 | > 150 µL/min/mg |  |  | Cc1ccc(S(=O)(=O)Nc2c(C(=O)NCc3ccccc3)cnn2-c2ccccc2)cc1
 | < 3 µL/min/1e6 cells | 5 µL/min/mg | 0.166 |  |  |  |  | O=C(c1ccccc1)N1CCC2(CCN(Cc3cccc(Cl)c3)CC2)CC1
 | 47.9 µL/min/1e6 cells |  | 0.0234 | 0.79 | 54.5 µL/min/mg |  |  | CCC(CC)NC(=O)c1cnn(-c2ccccc2)c1NS(=O)(=O)c1ccc(C)cc1
 | > 150 µL/min/1e6 cells |  | 0.0245 | 4.24 | > 150 µL/min/mg |  |  | CSCCC(NC(=O)c1ccccc1)c1nc2ccccc2n1Cc1ccc(C#N)cc1 (stereo not given)

Reference: ChEMBL document CHEMBL3301361, “Experimental in vitro DMPK and physicochemical data on a set of publicly disclosed compounds”
